From patent US12435092B2, “Substituted imidazo[1,2-A]quinazolines as inhibitors of PARG” (858 Therapeutics, Inc., priority 2022, dated 2025) come the findings set out here.

As usually defined, the IC50 is the concentration that inhibits the measured activity by half. High values mean a need for much substance, low ones inhibition by little substance.

The assay addresses T1, cellular PARG (Homo sapiens, UniProt Q86W56).
T1 construct: endogenous in cells; host or cells: HeLa
The assay is described as follows: Nuclear PAR accumulation assay (immunofluorescence high-content imaging). It counts as cell-based. The settings on record: HeLa cells, 1 hour compound treatment then MMS 50 μg/mL for an additional hour. The essentials: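 HeLa cells pretreated 1 h at 37 °C with compound, then 1 h with 50 μg/mL MMS (final), methanol-fixed and immunostained for PAR with DAPI nuclear counterstain. Nuclear PAR intensity and percent PAR-positive cells quantified by high-content imaging (≥1,000 cells/well). IC50 by four-parameter logistic fit, normalized to 0.1% DMSO and reference-compound controls.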

Bounds are passed on as bounds.

T1 sequence (Q86W56 whole entry): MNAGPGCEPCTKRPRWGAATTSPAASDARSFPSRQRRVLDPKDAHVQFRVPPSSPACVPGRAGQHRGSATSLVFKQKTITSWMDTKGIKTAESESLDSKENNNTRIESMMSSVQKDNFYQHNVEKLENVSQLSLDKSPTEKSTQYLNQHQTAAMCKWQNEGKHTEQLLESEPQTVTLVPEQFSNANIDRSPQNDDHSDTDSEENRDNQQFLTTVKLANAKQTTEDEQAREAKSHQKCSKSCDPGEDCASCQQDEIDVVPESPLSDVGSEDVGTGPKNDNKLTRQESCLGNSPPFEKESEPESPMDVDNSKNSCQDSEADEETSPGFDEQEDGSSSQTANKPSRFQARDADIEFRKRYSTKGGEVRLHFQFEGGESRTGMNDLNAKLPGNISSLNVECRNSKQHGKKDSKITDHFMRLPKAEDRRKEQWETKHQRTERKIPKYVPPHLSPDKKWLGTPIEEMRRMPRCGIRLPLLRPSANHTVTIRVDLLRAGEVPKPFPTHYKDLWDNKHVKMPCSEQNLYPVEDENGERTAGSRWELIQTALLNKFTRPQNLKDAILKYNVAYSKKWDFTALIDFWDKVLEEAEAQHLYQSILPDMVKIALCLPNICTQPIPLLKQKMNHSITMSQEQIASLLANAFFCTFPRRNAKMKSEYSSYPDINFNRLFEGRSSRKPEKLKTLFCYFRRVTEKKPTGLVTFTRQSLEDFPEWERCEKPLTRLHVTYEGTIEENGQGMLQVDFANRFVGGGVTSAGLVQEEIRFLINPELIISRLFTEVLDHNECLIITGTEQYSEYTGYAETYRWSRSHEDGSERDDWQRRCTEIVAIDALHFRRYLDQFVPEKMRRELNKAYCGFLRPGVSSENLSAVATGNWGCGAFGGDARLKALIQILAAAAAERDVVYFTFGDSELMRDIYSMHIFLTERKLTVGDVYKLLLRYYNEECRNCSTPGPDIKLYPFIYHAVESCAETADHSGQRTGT

Regarding `Cn1cc(CN2C(=O)c3cc(S(=O)(=O)NC4(C)CC4)ccc3N3CC4(CCC4)N=C23)cn1` [Example 101, 4′-((1-methyl-1H-pyrazol-4-yl)methyl)-N-(1-methylcyclopropyl)-5′-oxo-4′,5′-dihydro-1′H-spiro[cyclobutane-1,2′-imidazo[1,2-a]quinazoline]-7′-sulfonamide], the IC50 is at most 100 nM. The result for `Cn1cc(CN2C(=O)c3cc(S(=O)(=O)NC4(C)CC4)ccc3N3CC4(CC(F)(F)C4)N=C23)cn1` [Example 102, 3,3-difluoro-4′-((1-methyl-1H-pyrazol-4-yl)methyl)-N-(1-methylcyclopropyl)-5′-oxo-4′,5′-dihydro-1′H-spiro[cyclobutane-1,2′-imidazo[1,2-a]quinazoline]-7′-sulfonamide] reads at most 100 nM; that for `Cn1cc(CN2C(=O)c3cc(S(=O)(=O)NC4(C)CC4)ccc3N3CC4(CCOC4)N=C23)cn1` (centres unmarked) [Example 103, 4′-((1-methyl-1H-pyrazol-4-yl)methyl)-N-(1-methylcyclopropyl)-5′-oxo-4,4′,5,5′-tetrahydro-1′H,2H-spiro[furan-3,2′-imidazo[1,2-a]quinazoline]-7′-sulfonamide], at most 100 nM.

Regarding `Cn1cc(CN2C(=O)c3cc(S(=O)(=O)NC4(C)CC4)ccc3N3C2=NCC32CCC2)cn1` [Example 104, 4′-((1-methyl-1H-pyrazol-4-yl)methyl)-N-(1-methylcyclopropyl)-5′-oxo-4′,5′-dihydro-2′H-spiro[cyclobutane-1,1′-imidazo[1,2-a]quinazoline]-7′-sulfonamide], the IC50 is at most 100 nM. Next, `Cn1cc(CN2C(=O)c3cc(S(=O)(=O)NC4(C)CC4)ccc3N3C2=NCC32COC2)cn1` [Example 105, 4-((1-methyl-1H-pyrazol-4-yl)methyl)-N-(1-methylcyclopropyl)-5-oxo-4,5-dihydro-2H-spiro[imidazo[1,2-a]quinazoline-1,3′-oxetane]-7-sulfonamide]: 100 to 1000 nM.

Regarding `C[C@H]1CN2C(=N1)N(Cc1cnn(C)c1)C(=O)c1cc(S(=O)(=O)NC3(C)CC3)ccc12` [Example 106, (S)-2-methyl-4-((1-methyl-1H-pyrazol-4-yl)methyl)-N-(1-methylcyclopropyl)-5-oxo-1,2,4,5-tetrahydroimidazo[1,2-a]quinazoline-7-sulfonamide], the half-inhibitory concentration (IC50) was at most 100 nM. Next, `C[C@@H]1CN2C(=N1)N(Cc1cnn(C)c1)C(=O)c1cc(S(=O)(=O)NC3(C)CC3)ccc12` [Example 107, (R)-2-methyl-4-((1-methyl-1H-pyrazol-4-yl)methyl)-N-(1-methylcyclopropyl)-5-oxo-1,2,4,5-tetrahydroimidazo[1,2-a]quinazoline-7-sulfonamide]: 100 to 1000 nM. Next, `C[C@@H]1N=C2N(Cc3cnn(C)c3)C(=O)c3cc(S(=O)(=O)NC4(C)CC4)ccc3N2[C@@H]1C` [Example 108, (1R,2S)-1,2-dimethyl-4-((1-methyl-1H-pyrazol-4-yl)methyl)-N-(1-methylcyclopropyl)-5-oxo-1,2,4,5-tetrahydroimidazo[1,2-a]quinazoline-7-sulfonamide]: at most 100 nM; `C[C@@H]1[C@@H](C)N=C2N(Cc3cnn(C)c3)C(=O)c3cc(S(=O)(=O)NC4(C)CC4)ccc3N21` [Example 109, (1R,2R)-1,2-dimethyl-4-((1-methyl-1H-pyrazol-4-yl)methyl)-N-(1-methylcyclopropyl)-5-oxo-1,2,4,5-tetrahydroimidazo[1,2-a]quinazoline-7-sulfonamide]: at most 100 nM; `C[C@@H]1N2C(=NC1(C)C)N(Cc1cnn(C)c1)C(=O)c1cc(S(=O)(=O)NC3(C)CC3)ccc12` [Example 110, (S)-1,2,2-trimethyl-4-((1-methyl-1H-pyrazol-4-yl)methyl)-N-(1-methylcyclopropyl)-5-oxo-1,2,4,5-tetrahydroimidazo[1,2-a]quinazoline-7-sulfonamide]: 100 to 1000 nM.

With `C[C@H]1N2C(=NC1(C)C)N(Cc1cnn(C)c1)C(=O)c1cc(S(=O)(=O)NC3(C)CC3)ccc12` [Example 111, (R)-1,2,2-trimethyl-4-((1-methyl-1H-pyrazol-4-yl)methyl)-N-(1-methylcyclopropyl)-5-oxo-1,2,4,5-tetrahydroimidazo[1,2-a]quinazoline-7-sulfonamide], the concentration for half-maximal inhibition (IC50) was at most 100 nM. The result for `Cc1ncc(CN2C(=O)c3cc(S(=O)(=O)NC4(C)CC4)ccc3N3C2=NC[C@H]3C)[nH]1` [Example 112, (R)-1-methyl-4-((2-methyl-1H-imidazol-5-yl)methyl)-N-(1-methylcyclopropyl)-5-oxo-1,2,4,5-tetrahydroimidazo[1,2-a]quinazoline-7-sulfonamide] reads 1000 to 10000 nM.

The compound `[2H]C([2H])(c1sc(C)nc1C)N1C(=O)c2cc(S(=O)(=O)NC3(C)CC3)c(F)cc2N2C1=NC[C@H]2C` [Example 113, (R)-4-(dideutero(2,4-dimethylthiazol-5-yl)methyl)-8-fluoro-1-methyl-N-(1-methylcyclopropyl)-5-oxo-1,2,4,5-tetrahydroimidazo[1,2-a]quinazoline-7-sulfonamide] returned an IC50 of at most 100 nM. Next, `C[C@@H]1CN=C2N1c1ccc(S(=O)(=O)NC3(C)CC3)cc1C(=O)N2C1(c2cnn(C)c2)CC1` [Example 114, (R)-1-methyl-4-(1-(1-methyl-1H-pyrazol-4-yl)cydopropyl)-N-(1-methylcyclopropyl)-5-oxo-1,2,4,5-tetrahydroimidazo[1,2-a]quinazoline-7-sulfonamide]: 1000 to 10000 nM; `Cc1ncn(C)c1CN1C(=O)c2cc(S(=O)(=O)NC3(C)CC3)ccc2N2C1=NC[C@H]2C` [Example 115, (R)-4-((1,4-dimethyl-1H-imidazol-5-yl)methyl)-1-methyl-N-(1-methylcyclopropyl)-5-oxo-1,2,4,5-tetrahydroimidazo[1,2-a]quinazoline-7-sulfonamide]: 100 to 1000 nM; `Cn1cc(CN2C(=O)c3cc(S(=O)(=O)NC4(C)CC4)ccc3N3CC4(COC4)N=C23)cn1` [Example 116, 4-((1-methyl-1H-pyrazol-4-yl)methyl)-N-(1-methylcyclopropyl)-5-oxo-4,5-dihydro-1H-spiro[imidazo[1,2-a]quinazoline-2,3′-oxetane]-7-sulfonamide]: 100 to 1000 nM. The result for `CCC1(C)CN2C(=N1)N(Cc1cnn(C)c1)C(=O)c1cc(S(=O)(=O)NC3(C)CC3)ccc12` (centres unmarked) [Example 117, 2-ethyl-2-methyl-4-((1-methyl-1H-pyrazol-4-yl)methyl)-N-(1-methylcyclopropyl)-5-oxo-1,2,4,5-tetrahydroimidazo[1,2-a]quinazoline-7-sulfonamide] reads at most 100 nM; that for `C[C@@H]1CN=C2N(Cc3cnn4c3CCC4)C(=O)c3cc(S(=O)(=O)NC4(C)CC4)ccc3N21` [Example 118, (R)-4-((5,6-dihydro-4H-pyrrolo[1,2-b]pyrazol-3-yl)methyl)-1-methyl-N-(1-methylcyclopropyl)-5-oxo-1,2,4,5-tetrahydroimidazo[1,2-a]quinazoline-7-sulfonamide], at most 100 nM; that for `C[C@@H]1CN=C2N(Cc3cnn4c3OCCC4)C(=O)c3cc(S(=O)(=O)NC4(C)CC4)ccc3N21` [Example 119, (R)-4-((6,7-dihydro-5H-pyrazolo[5,1-b][1,3]oxazin-3-yl)methyl)-1-methyl-N-(1-methylcyclopropyl)-5-oxo-1,2,4,5-tetrahydroimidazo[1,2-a]quinazoline-7-sulfonamide], at most 100 nM.

On to `Cc1nc(C)c(CN2C(=O)c3cc(S(=O)(=O)NC4(C)CC4)ccc3N3C2=NC[C@H]3C)[nH]1` [Example 120, (R)-4-((2,4-dimethyl-1H-imidazol-5-yl)methyl)-1-methyl-N-(1-methylcyclopropyl)-5-oxo-1,2,4,5-tetrahydroimidazo[1,2-a]quinazoline-7-sulfonamide], for which the IC50 was 1000 to 10000 nM. Next, `Cc1nnsc1CN1C(=O)c2cc(S(=O)(=O)NC3(C)CC3)ccc2N2C1=NC[C@H]2C` [Example 121, (R)-1-methyl-4-((4-methyl-1,2,3-thiadiazol-5-yl)methyl)-N-(1-methylcyclopropyl)-5-oxo-1,2,4,5-tetrahydroimidazo[1,2-a]quinazoline-7-sulfonamide]: at most 100 nM; `[2H]C([2H])(c1cnn2c1CCC2)N1C(=O)c2cc(S(=O)(=O)NC3(C)CC3)ccc2N2C1=NC[C@H]2C` [Example 122, (R)-4-(dideutero(5,6-dihydro-4H-pyrrolo[1,2-b]pyrazol-3-yl)methyl)-1-methyl-N-(1-methylcyclopropyl)-5-oxo-1,2,4,5-tetrahydroimidazo[1,2-a]quinazoline-7-sulfonamide]: at most 100 nM. `C[C@@H]1CN=C2N(Cc3cnn(C)c3)C(=O)c3cc(S(=O)(=O)NC4(C)CC4)cc(Cl)c3N21` [Example 124, (R)-9-chloro-1-methyl-4-((1-methyl-1H-pyrazol-4-yl)methyl)-N-(1-methylcyclopropyl)-5-oxo-1,2,4,5-tetrahydroimidazo[1,2-a]quinazoline-7-sulfonamide]: the IC50 is at most 100 nM. Next, `COCC1(C)CN2C(=N1)N(Cc1cnn(C)c1)C(=O)c1cc(S(=O)(=O)NC3(C)CC3)ccc12` (centres unmarked) [Example 127, 2-(methoxymethyl)-2-methyl-4-((1-methyl-1H-pyrazol-4-yl)methyl)-N-(1-methylcyclopropyl)-5-oxo-1,2,4,5-tetrahydroimidazo[1,2-a]quinazoline-7-sulfonamide]: 100 to 1000 nM; `[2H]C([2H])(c1cnn(C)c1)N1C(=O)c2cc(S(=O)(=O)NC3(C)CC3)cc(Cl)c2N2C1=NC[C@H]2C` [Example 128, (R)-9-chloro-4-(dideutero(1-methyl-1H-pyrazol-4-yl)methyl)-1-methyl-N-(1-methylcyclopropyl)-5-oxo-1,2,4,5-tetrahydroimidazo[1,2-a]quinazoline-7-sulfonamide]: at most 100 nM; `C[C@@H]1CN=C2N(Cc3cnn(C)c3)C(=O)c3cc(S(=O)(=O)NC4(C)CC4)cc(Br)c3N21` [Example 129, (R)-9-bromo-1-methyl-4-((1-methyl-1H-pyrazol-4-yl)methyl)-N-(1-methylcyclopropyl)-5-oxo-1,2,4,5-tetrahydroimidazo[1,2-a]quinazoline-7-sulfonamide]: at most 100 nM.
